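Values below derive from 48-hour exposures of cells grown in 96-well plates, with endpoints linearly interpolated between the two concentrations bracketing the appropriate inhibition level. GI50: concentration for 50% inhibition of growth.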 Activity calls are given as the source filed them. Rule as the data show it: active = GI50 up to about 1.1 µM and inactive = higher.
What was measured:
Test in all cases: NCI tumour cell line growth inhibition, 48 h
[1] = tested on: 786-0
[2] = tested on: A498
[3] = tested on: A549
[4] = tested on: ACHN
[5] = tested on: CAKI-1
[6] = tested on: CCRF-CEM
[7] = tested on: COLO 205
[8] = tested on: DMS-114
[9] = tested on: DMS-273
[10] = tested on: EKVX
[11] = tested on: HCC 2998
[12] = tested on: HCT-116
[13] = tested on: HCT-15
[14] = tested on: HL-60
[15] = tested on: HOP-18
[16] = tested on: HOP-62
[17] = tested on: HOP-92
[18] = tested on: HT-29
[19] = tested on: IGROV-1
[20] = tested on: K562
[21] = tested on: KM-20L2
[22] = tested on: KM12
[23] = tested on: LOX IMVI
[24] = tested on: LXFL 529
[25] = tested on: M14
[26] = tested on: MOLT-4
[27] = tested on: Malme-3M
[28] = tested on: NCI-H226
[29] = tested on: NCI-H23
[30] = tested on: NCI-H460
[31] = tested on: NCI-H522
[32] = tested on: OVCAR-3
[33] = tested on: OVCAR-5
[34] = tested on: OVCAR-8
[35] = tested on: RPMI-8226
[36] = tested on: RXF 393
[37] = tested on: SF-268
[38] = tested on: SF-295
[39] = tested on: SF-539
[40] = tested on: SK-MEL-28
[41] = tested on: SK-MEL-2
[42] = tested on: SK-MEL-5
[43] = tested on: SK-OV-3
[44] = tested on: SN12C
[45] = tested on: SNB-19
[46] = tested on: SNB-75
[47] = tested on: SNB-78
[48] = tested on: SR
[49] = tested on: SW-620
[50] = tested on: TK-10
[51] = tested on: U-251
[52] = tested on: UACC-257
[53] = tested on: UACC-62
[54] = tested on: UO-31
[55] = tested on: XF498
[56] = tested on: DLD-1
[57] = tested on: M19-MEL
[58] = tested on: OVCAR-4

Q: For `Cc1ccc(NC(=O)CCc2cc(C(C)(C)C)nc(S)n2)cc1C`, which GI50 [1] is on record?
A: > 100 µM (inactive)

Q: What about the GI50 [2] of the same molecule?
A: > 100 µM (inactive)

Q: And the GI50 [3]?
A: > 100 µM (inactive)

Q: What about the GI50 [4] of the same molecule?
A: > 100 µM (inactive)

Q: What about the GI50 [5] of the same molecule?
A: > 100 µM (inactive)

Q: What about the GI50 [6] of the same molecule?
A: > 100 µM (inactive)

Q: What about the GI50 [7] of the same molecule?
A: > 100 µM (inactive)

Q: What about the GI50 [8] of the same molecule?
A: > 100 µM (inactive)

Q: And the GI50 [9]?
A: > 100 µM (inactive)

Q: And the GI50 [10]?
A: > 100 µM (inactive)

Q: And the GI50 [11]?
A: > 100 µM (inactive)

Q: And the GI50 [12]?
A: > 100 µM (inactive)

Q: And the GI50 [13]?
A: > 100 µM

Q: And the GI50 [14]?
A: > 100 µM (inactive)

Q: What about the GI50 [15] of the same molecule?
A: > 100 µM (inactive)

Q: What about the GI50 [16] of the same molecule?
A: > 100 µM (inactive)

Q: And the GI50 [17]?
A: > 100 µM (inactive)

Q: What about the GI50 [18] of the same molecule?
A: > 100 µM (inactive)

Q: What about the GI50 [19] of the same molecule?
A: > 100 µM (inactive)

Q: And the GI50 [20]?
A: > 100 µM (inactive)

Q: What about the GI50 [21] of the same molecule?
A: > 100 µM (inactive)

Q: And the GI50 [22]?
A: > 100 µM (inactive)

Q: What about the GI50 [23] of the same molecule?
A: > 100 µM (inactive)

Q: What about the GI50 [24] of the same molecule?
A: > 100 µM (inactive)

Q: And the GI50 [25]?
A: > 100 µM (inactive)

Q: And the GI50 [26]?
A: > 100 µM (inactive)

Q: What about the GI50 [27] of the same molecule?
A: > 100 µM (inactive)

Q: And the GI50 [28]?
A: > 100 µM (inactive)

Q: What about the GI50 [29] of the same molecule?
A: > 100 µM (inactive)

Q: And the GI50 [30]?
A: > 100 µM (inactive)

Q: What about the GI50 [31] of the same molecule?
A: > 100 µM (inactive)

Q: What about the GI50 [32] of the same molecule?
A: > 100 µM (inactive)

Q: And the GI50 [33]?
A: > 100 µM (inactive)

Q: And the GI50 [34]?
A: > 100 µM (inactive)

Q: What about the GI50 [35] of the same molecule?
A: > 100 µM (inactive)

Q: And the GI50 [36]?
A: > 100 µM (inactive)

Q: What about the GI50 [37] of the same molecule?
A: > 100 µM (inactive)

Q: What about the GI50 [38] of the same molecule?
A: > 100 µM (inactive)

Q: What about the GI50 [39] of the same molecule?
A: > 100 µM (inactive)

Q: And the GI50 [40]?
A: > 100 µM (inactive)

Q: And the GI50 [41]?
A: > 100 µM (inactive)

Q: And the GI50 [42]?
A: > 100 µM (inactive)

Q: And the GI50 [43]?
A: > 100 µM (inactive)

Q: What about the GI50 [44] of the same molecule?
A: > 100 µM (inactive)

Q: What about the GI50 [45] of the same molecule?
A: > 100 µM (inactive)

Q: And the GI50 [46]?
A: > 100 µM (inactive)

Q: And the GI50 [47]?
A: > 100 µM (inactive)

Q: What about the GI50 [48] of the same molecule?
A: > 100 µM (inactive)

Q: And the GI50 [49]?
A: > 100 µM (inactive)

Q: And the GI50 [50]?
A: > 100 µM (inactive)

Q: What about the GI50 [51] of the same molecule?
A: > 100 µM (inactive)

Q: And the GI50 [52]?
A: > 100 µM (inactive)

Q: And the GI50 [53]?
A: > 100 µM (inactive)

Q: And the GI50 [54]?
A: > 100 µM (inactive)

Q: And the GI50 [55]?
A: > 100 µM (inactive)

Q: What does the source list for `Nc1ccn(CCO)c(=O)n1`?
A: GI50 [1]: > 100 µM (inactive); GI50 [2]: > 100 µM (inactive); GI50 [3]: > 100 µM (inactive); GI50 [4]: > 100 µM (inactive); GI50 [5]: > 100 µM (inactive); GI50 [6]: > 100 µM (inactive); GI50 [7]: > 100 µM (inactive); GI50 [56]: > 100 µM (inactive); GI50 [8]: > 100 µM (inactive); GI50 [9]: > 100 µM (inactive); GI50 [10]: > 100 µM (inactive); GI50 [11]: > 100 µM (inactive); GI50 [12]: > 100 µM (inactive); GI50 [13]: > 100 µM; GI50 [14]: > 100 µM (inactive); GI50 [15]: > 100 µM (inactive); GI50 [16]: > 100 µM (inactive); GI50 [17]: > 100 µM (inactive); GI50 [18]: > 100 µM (inactive); GI50 [19]: > 100 µM (inactive); GI50 [20]: > 100 µM (inactive); GI50 [21]: > 100 µM (inactive); GI50 [22]: > 100 µM (inactive); GI50 [23]: > 100 µM (inactive); GI50 [24]: > 100 µM (inactive); GI50 [25]: > 100 µM (inactive); GI50 [57]: > 100 µM (inactive); GI50 [27]: > 100 µM (inactive); GI50 [28]: > 100 µM (inactive); GI50 [30]: > 100 µM (inactive); GI50 [31]: > 100 µM (inactive); GI50 [32]: > 100 µM (inactive); GI50 [58]: > 100 µM (inactive); GI50 [33]: > 100 µM (inactive); GI50 [34]: > 100 µM (inactive); GI50 [35]: > 100 µM (inactive); GI50 [36]: > 100 µM (inactive); GI50 [37]: > 100 µM (inactive); GI50 [38]: > 100 µM (inactive); GI50 [39]: > 100 µM (inactive); GI50 [40]: > 100 µM (inactive); GI50 [41]: > 100 µM (inactive); GI50 [42]: > 100 µM (inactive); GI50 [43]: > 100 µM (inactive); GI50 [44]: > 100 µM (inactive); GI50 [46]: > 100 µM (inactive); GI50 [47]: > 100 µM (inactive); GI50 [48]: > 100 µM (inactive); GI50 [49]: > 100 µM (inactive); GI50 [50]: > 100 µM (inactive); GI50 [51]: > 100 µM (inactive); GI50 [52]: > 100 µM (inactive); GI50 [53]: > 100 µM (inactive); GI50 [54]: > 100 µM (inactive)
